Measured values taken from article PMC6899459 (Chemmedchem, 2019).
Square brackets hold non-standard residues; d marks the D form. Peptide text beside a SMILES is read from it. Trp(3S-Ph) = N[C@H](C(=O)O)[C@@H](c1ccccc1)c1c[nH]c2ccccc12; Trp(βR-Ph) = N[C@H](C(=O)O)[C@H](c1ccccc1)c1c[nH]c2ccccc12; d2Nal = N[C@H](Cc1ccc2ccccc2c1)C(=O)O; dBta = N[C@H](Cc1csc2ccccc12)C(=O)O; Inp = O=C(O)C1CCNCC1

Target: ghrelin receptor (Homo sapiens, UniProt Q92847)
Experiment: IP-One assay
Type: cell-based
Details: for EC50 / E max [Δ%]: SEM; for E max [Δ%]: difference between constitutive activity and maximal effect, mean±SEM of >=2 independent experiments; for potency loss relative to ghrelin: IP-One assay, COS7 cells with ghrelin receptor
[1] = normalized to ghrelin (5) efficacy (ghrelin analogues and multiple modified agonists)
[2] = normalized to KbFwLL-NH2 (15) (inverse agonists and 13)

ghrelin receptor, sequence (Q92847 whole entry): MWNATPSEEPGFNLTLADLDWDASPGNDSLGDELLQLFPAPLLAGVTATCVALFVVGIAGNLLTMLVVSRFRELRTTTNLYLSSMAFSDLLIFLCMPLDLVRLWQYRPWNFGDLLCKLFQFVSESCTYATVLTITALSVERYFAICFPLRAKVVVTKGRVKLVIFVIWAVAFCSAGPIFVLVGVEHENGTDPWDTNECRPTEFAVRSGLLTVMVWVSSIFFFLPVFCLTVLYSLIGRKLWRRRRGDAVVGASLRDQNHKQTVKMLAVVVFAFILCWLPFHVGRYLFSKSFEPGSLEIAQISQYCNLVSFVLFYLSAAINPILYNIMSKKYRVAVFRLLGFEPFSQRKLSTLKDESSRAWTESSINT

| SMILES | EC50 [µM] | E max [Δ%] [1] | E max [Δ%] [2] | potency loss relative to ghrelin |
| --- | --- | --- | --- | --- |
| C[C@H](N)C(=O)N[C@H](Cc1c[nH]c2ccccc12)C(=O)N[C@@H](Cc1ccccc1)C(=O)N[C@H](C(=O)N1CCC(C(N)=O)CC1)[C@@H](c1ccccc1)c1c[nH]c2ccccc12 [Peptide 21, AwF‐Wsf‐Isn‐NH2] (H-A[dW]F[Trp(3S-Ph)][Inp]-NH2; N-terminus assumed) | 0.0832 | 95±2 Δ% | – | – |
| CC(C)C[C@H](NC(=O)[C@H](CC(C)C)NC(=O)[C@@H](Cc1c[nH]c2ccccc12)NC(=O)[C@H](Cc1ccccc1)NC(=O)[C@@H](NC(=O)[C@@H](N)CCCCN)[C@H](c1ccccc1)c1c[nH]c2ccccc12)C(N)=O [Peptide 9, K‐Wrf‐FwLL‐NH2] | – | – | 72±2 Δ% | – |
| CC(C)C[C@H](NC(=O)[C@H](CC(C)C)NC(=O)[C@@H](Cc1c[nH]c2ccccc12)NC(=O)[C@H](Cc1ccccc1)NC(=O)[C@@H](Cc1c[nH]c2ccccc12)NC(=O)[C@@H](N)CCCCN)C(N)=O [Peptide 8, KwFwLL‐NH2, reference compound] | 0.182 | – | 66±3 Δ% | – |
| CC(C)C[C@H](NC(=O)[C@H](CC(C)C)NC(=O)[C@@H](Cc1c[nH]c2ccccc12)NC(=O)[C@@H](NC(=O)[C@@H](Cc1c[nH]c2ccccc12)NC(=O)[C@@H](N)CCCCN)[C@H](c1ccccc1)c1c[nH]c2ccccc12)C(N)=O [Peptide 11, Kw‐Wrf‐wLL‐NH2] (H-K[dW][Trp(βR-Ph)][dW]LL-NH2; N-terminus assumed) | 0.148 | – | 55±4 Δ% | – |
| CCCCCCCC(=O)OC[C@H](NC(=O)[C@H](CO)NC(=O)CN)C(=O)N[C@H](C(=O)N[C@@H](CC(C)C)C(=O)N[C@@H](CO)C(=O)N1CCC[C@H]1C(=O)N[C@@H](CCC(=O)O)C(=O)N[C@@H](Cc1c[nH]cn1)C(=O)N[C@@H](CCC(N)=O)C(=O)N[C@@H](CCCNC(=N)N)C(=O)N[C@H](C(=O)N[C@@H](CCC(N)=O)C(=O)N[C@@H](CCC(N)=O)C(=O)N[C@@H](CCCNC(=N)N)C(=O)N[C@@H](CCCCN)C(=O)N[C@@H](CCC(=O)O)C(=O)N[C@@H](CO)C(=O)N[C@@H](CCCCN)C(=O)N[C@@H](CCCCN)C(=O)N1CCC[C@H]1C(=O)N1CCC[C@H]1C(=O)N[C@@H](C)C(=O)N[C@@H](CCCCN)C(=O)N[C@@H](CC(C)C)C(=O)N[C@@H](CCC(N)=O)C(=O)N1CCC[C@H]1C(=O)N[C@@H](CCCNC(=N)N)C(=O)O)C(C)C)[C@H](c1ccccc1)c1c[nH]c2ccccc12 [Peptide 6, Wrf^4‐ghrelin] | 0.0324 | 98±2 Δ% | – | about 12 fold |
| C[C@H](N)C(=O)N[C@H](Cc1c[nH]c2ccccc12)C(=O)N[C@@H](Cc1ccccc1)C(=O)N[C@H](Cc1ccc2ccccc2c1)C(=O)N1CCC(C(N)=O)CC1 [Peptide 18, AwFn‐Isn‐NH2, reference compound] (H-A[dW]F[d2Nal][Inp]-NH2; N-terminus assumed) | 0.0166 | 110±6 Δ% | – | – |
| CC(C)C[C@H](NC(=O)[C@H](CC(C)C)NC(=O)[C@@H](Cc1c[nH]c2ccccc12)NC(=O)[C@@H](NC(=O)[C@@H](Cc1c[nH]c2ccccc12)NC(=O)[C@@H](N)CCCCN)[C@@H](c1ccccc1)c1c[nH]c2ccccc12)C(N)=O [Peptide 12, Kw‐Wsf‐wLL‐NH2] (H-K[dW][Trp(3S-Ph)][dW]LL-NH2; N-terminus assumed) | 0.282 | – | 77±4 Δ% | – |
| CCCCCCCC(=O)OC[C@H](NC(=O)[C@H](CO)NC(=O)CN)C(=O)N[C@H](C(=O)N[C@@H](CC(C)C)C(=O)N[C@@H](CO)C(=O)N1CCC[C@H]1C(=O)N[C@@H](CCC(=O)O)C(=O)N[C@@H](Cc1c[nH]cn1)C(=O)N[C@@H](CCC(N)=O)C(=O)N[C@@H](CCCNC(=N)N)C(=O)N[C@H](C(=O)N[C@@H](CCC(N)=O)C(=O)N[C@@H](CCC(N)=O)C(=O)N[C@@H](CCCNC(=N)N)C(=O)N[C@@H](CCCCN)C(=O)N[C@@H](CCC(=O)O)C(=O)N[C@@H](CO)C(=O)N[C@@H](CCCCN)C(=O)N[C@@H](CCCCN)C(=O)N1CCC[C@H]1C(=O)N1CCC[C@H]1C(=O)N[C@@H](C)C(=O)N[C@@H](CCCCN)C(=O)N[C@@H](CC(C)C)C(=O)N[C@@H](CCC(N)=O)C(=O)N1CCC[C@H]1C(=O)N[C@@H](CCCNC(=N)N)C(=O)O)C(C)C)[C@@H](c1ccccc1)c1c[nH]c2ccccc12 [Peptide 7, Wsf^4‐ghrelin] | 0.0339 | 96±2 Δ% | – | about 12 fold |
| C[C@H](N)C(=O)N[C@H](Cc1c[nH]c2ccccc12)C(=O)N[C@@H](Cc1ccccc1)C(=O)N[C@H](C(=O)N1CCC(C(N)=O)CC1)[C@H](c1ccccc1)c1c[nH]c2ccccc12 [Peptide 20, AwF‐Wrf‐Isn‐NH2] (H-A[dW]F[Trp(βR-Ph)][Inp]-NH2; N-terminus assumed) | 0.0275 | 105±3 Δ% | – | – |
| CC(C)C[C@H](NC(=O)[C@H](CC(C)C)NC(=O)[C@@H](NC(=O)[C@H](Cc1ccccc1)NC(=O)[C@@H](Cc1c[nH]c2ccccc12)NC(=O)[C@@H](N)CCCCN)[C@H](c1ccccc1)c1c[nH]c2ccccc12)C(N)=O [Peptide 13, KwF‐Wrf‐LL‐NH2] | 0.912 | – | 39±3 Δ% | – |
| CC(C)C[C@H](NC(=O)[C@H](CC(C)C)NC(=O)[C@@H](Cc1c[nH]c2ccccc12)NC(=O)[C@@H](NC(=O)[C@@H](Cc1csc2ccccc12)NC(=O)[C@@H](N)CCCCN)[C@H](c1ccccc1)c1c[nH]c2ccccc12)C(N)=O [Peptide 16, Kb‐Wrf‐wLL‐NH2] (H-K[dBta][Trp(βR-Ph)][dW]LL-NH2; N-terminus assumed) | 0.55 | – | 56±3 Δ% | – |
